Experimental data as given in patent US10746747B2, “Method for quantitative characterization of substances with regard to their properties of binding to amyloid-β (Aβ) conformers” (FORSCHUNGSZENTRUM JUELICH GMBH, priority 2013, dated 2020).
Read-outs that look alike come from different tables or passages of the source. Square brackets hold non-standard residues; d marks the D form. Peptide text beside a SMILES is read from it.

Legend:
Aβ(1-42) fibrils = target: T1, Aβ(1-42) fibrils (Homo sapiens, UniProt P05067); test: SPR single-cycle kinetics on immobilized Aβ(1-42) fibrils; conditions: fibrils by density gradient centrifugation, 1324 RU immobilized, binding model with three binding sites
T1 construct: oligomers and fibrils being composed of a 1:10 ratio of biotinylated Aβ(1-42) to non-biotinylated Aβ(1-42)
Method: (§1) The results can be obtained by surface plasmon resonance or by biolayer interferometry. In the case of surface plasmon resonance, regeneration steps between individual analyte injections are circumvented by carrying out the interaction studies using the “single-cycle kinetics” measurement method. Thus, advantageously, different analyte concentrations are injected directly one after the other.
(§2) In order to ensure a homogeneous sample preparation, monomers and oligomers were separated by means of size exclusion chromatography (SEC), and fibrils were separated from other forms by means of density gradient centrifugation. The immobilization on streptavidin-loaded SPR sensor surfaces took place by using biotinylated Aβ(1-42), oligomers and fibrils being composed of a 1:10 ratio of biotinylated Aβ(1-42) to non-biotinylated Aβ(1-42).
(§3) The lyophilized samples of N-terminally biotinylated Aβ(1-42) and non-biotinylated Aβ(1-42) were each dissolved separately from one another in 100% hexafluoroisopropanol (HIFP) and incubated overnight at room temperature. The volumes required for a 1:10 ratio were then combined and the HFIP was evaporated off using a concentrator.
For the preparation of fibrillar Aβ(1-42), the pellets obtained after the evaporation were dissolved in 10 mM sodium phosphate buffer pH 7.4 and incubated for 24 hours at 25° C. and at 600 rpm.
(§4) The density gradient was prepared by subsequently layering over the density gradient solution (iodixanol diluted in 10 mM sodium phosphate buffer pH 7.4) in concentrations of 50% (260 μl), 40% (260 μl), 30% (260 μl), 20% (260 μl), 10% (260 μl) and 5% (100 μl) (v/v). The samples were then pipetted onto the density gradient and centrifugation was carried out for 3 hours at 4° C. and 259000 g. A total of 14 fractions, each of 140 μl, was then removed from the density gradient from top to bottom. Monomers are found in the first fraction, oligomers are found in fractions 5 and 6, and fibrils are found typically in fractions 11-13.
The monomers are biotinylated C-terminally, unlike the oligomers and fibrils (N-terminally). The response units (Y-axis) were plotted against the time in seconds (X-axis), wherein the black curves represent the double-referenced experimental data and the gray superposed curves represent the fits. For characterizing the scFv-IC16, therefore, measurements using biotinylated Aβ(1-42) are possible; C-terminally biotinylated Aβ(1-42) was used here. For fitting to monomers, a 1:1 Langmuir binding model was used and oligomers and fibrils were fitted to a heterogeneous binding model which takes account of two different binding sites on the sensor surface. It can clearly be seen that the fits coincide very well with the experimental data. This is direct evidence of the successful immobilization of the various forms and the respectively homogeneous surface.
The index a1 and d1 refer respectively to the association and dissociation rate of the antibody fragment scFv-IC16 on the respective exposed epitope of the conformer. The index a2 and d2, on the other hand, refer respectively to the association and dissociation rate of the antibody fragment scFv-IC16 on discontinuous epitopes of the respective conformer. Analogously, the indices D1 and D2 refer to the dissociation constants on the continuous and discontinuous epitope.
The D-enantiomeric peptide D7 was identified by a mirror image […] selection and analyzed using the method described above with regard to the binding properties, by way of example as a substance to be tested. In a manner differing from the measurement data in FIG. 3, in this case, all the different Aβ(1-42) conformers (monomers, oligomers and fibrils) were prepared by means of density gradient centrifugation and immobilized in various quantities on the sensor surface. In the case of the monomers, 1423 RU were immobilized, in the case of the oligomers 1356 RU, and in the case of the fibrils 1324 RU. […]

Aβ(1-42) monomers = target: T2, Aβ(1-42) monomers (Homo sapiens, UniProt P05067); test: SPR single-cycle kinetics on immobilized Aβ(1-42) monomers; conditions: monomers by density gradient centrifugation, 1423 RU immobilized, heterogeneous binding model, two sites
T2 construct: sensor surfaces containing immobilized Aβ(1-42) monomers, oligomers and fibrils
Method: as §1, §2, §3
(§5) For the preparation of monomeric and oligomeric Aβ(1-42), the previously obtained pellet was taken up in the size exclusion chromatography buffer (50 mM sodium phosphate buffer, 150 mM NaCl, 0.6% Tween 20, pH 7.4) and briefly centrifuged for 30 seconds at 15500 g in order to sediment insoluble material.
(§6) The supernatant after the centrifugation step at the end of the preparation of monomeric and oligomeric Aβ(1-42) was then applied directly to a Superdex 75 10/300 GL (GE Healthcare) column for chromatographic separation. The flow rate during the elution with size exclusion chromatography buffer was 0.8 ml/min. Monomers eluted at ˜14 ml, whereas oligomers eluted at ˜8 ml.
as §4
(§7) The monomers are biotinylated C-terminally, unlike the oligomers and fibrils (N-terminally). The response units (Y-axis) were plotted against the time in seconds (X-axis), wherein the black curves represent the double-referenced experimental data and the gray superposed curves represent the fits. […]

Aβ(1-42) oligomers = target: T3, Aβ(1-42) oligomers (Homo sapiens, UniProt P05067); test: SPR single-cycle kinetics on immobilized Aβ(1-42) oligomers; conditions: oligomers by density gradient centrifugation, 1356 RU immobilized, heterogeneous binding model, two sites
T3 construct: oligomers and fibrils being composed of a 1:10 ratio of biotinylated Aβ(1-42) to non-biotinylated Aβ(1-42)
Method: as §1, §2, §3, §5, §6, §4, §7

[1] = sub-reaction 1, read-out: ka1 association rate
[2] = sub-reaction 1, read-out: kd1 dissociation rate
[3] = sub-reaction 2, read-out: ka2 association rate
[4] = sub-reaction 2, read-out: kd2 dissociation rate

T1 sequence (P05067 672-713 limits assumed): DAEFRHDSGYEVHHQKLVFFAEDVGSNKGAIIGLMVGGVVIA
T3 sequence (P05067 672-713 limits assumed): as above
T2 sequence (P05067 672-713 limits assumed): as above

- kon (Aβ(1-42) fibrils; [1]): 18200 M⁻¹ s⁻¹
- koff (Aβ(1-42) fibrils; [2]): 0.262 s⁻¹
- kon (Aβ(1-42) fibrils; [3]): 1320 M⁻¹ s⁻¹
- koff (Aβ(1-42) fibrils; [4]): 0.000193 s⁻¹
- kon (Aβ(1-42) fibrils; sub-reaction 3, read-out: ka3 association rate): 32300 M⁻¹ s⁻¹
- koff (Aβ(1-42) fibrils; sub-reaction 3, read-out: kd3 dissociation rate): 0.0125 s⁻¹
- kon (Aβ(1-42) monomers; [1]): 2420 M⁻¹ s⁻¹
- koff (Aβ(1-42) monomers; [2]): 0.000364 s⁻¹
- kon (Aβ(1-42) monomers; [3]): 100000 M⁻¹ s⁻¹
- koff (Aβ(1-42) monomers; [4]): 0.00928 s⁻¹
- kon (Aβ(1-42) oligomers; [1]): 4520 M⁻¹ s⁻¹
- koff (Aβ(1-42) oligomers; [2]): 0.000402 s⁻¹
- kon (Aβ(1-42) oligomers; [3]): 66200 M⁻¹ s⁻¹
- koff (Aβ(1-42) oligomers; [4]): 0.0153 s⁻¹
Structure (SMILES): CSCC[C@@H](NC(=O)[C@@H](Cc1c[nH]cn1)NC(=O)[C@@H](Cc1ccc(O)cc1)NC(=O)[C@H](NC(=O)[C@@H](Cc1ccc(O)cc1)NC(=O)[C@@H](Cc1ccc(O)cc1)NC(=O)[C@@H](CCC(=O)O)NC(=O)[C@@H](Cc1ccccc1)NC(=O)[C@@H](CCCNC(=N)N)NC(=O)[C@H](NC(=O)[C@H](N)Cc1c[nH]cn1)[C@H](C)O)C(C)C)C(=O)N[C@H](CO)C(=O)O [D7, htrfeyyvyhms] (H-[dH][dT][dR][dF][dE][dY][dY][dV][dY][dH][dM][dS]-OH; N-terminus and C-terminus assumed)
